Patent US20090203577A1 (EXELIXIS, INC., priority 2005, published 2009)
≈ marks a conversion by molar mass, not a printed value.

How the values were obtained:
physchem = details: pH 7.4, aqueous buffer, kinetic from dmso stock
[1] = target: T1, human farnesoid X receptor (Homo sapiens, UniProt Q96RI1); assay: FXR in vitro assays (farnesoid X receptor/ECREx7 co-transfection assay, TR-FRET assay), Table I; format: cell-based; details: for EC50: agonist activity, one or more of the in vitro assays, read-out: EC50; for Emax: read-out: % Efficacy
T1 construct: CMX-farnesoid X receptor (full length human farnesoid X receptor); expressed in transfected cells; host or cells: CV-1 African Green Monkey Kidney cells
T1 sequence (Q96RI1 1-472 isoform Q96RI1-2): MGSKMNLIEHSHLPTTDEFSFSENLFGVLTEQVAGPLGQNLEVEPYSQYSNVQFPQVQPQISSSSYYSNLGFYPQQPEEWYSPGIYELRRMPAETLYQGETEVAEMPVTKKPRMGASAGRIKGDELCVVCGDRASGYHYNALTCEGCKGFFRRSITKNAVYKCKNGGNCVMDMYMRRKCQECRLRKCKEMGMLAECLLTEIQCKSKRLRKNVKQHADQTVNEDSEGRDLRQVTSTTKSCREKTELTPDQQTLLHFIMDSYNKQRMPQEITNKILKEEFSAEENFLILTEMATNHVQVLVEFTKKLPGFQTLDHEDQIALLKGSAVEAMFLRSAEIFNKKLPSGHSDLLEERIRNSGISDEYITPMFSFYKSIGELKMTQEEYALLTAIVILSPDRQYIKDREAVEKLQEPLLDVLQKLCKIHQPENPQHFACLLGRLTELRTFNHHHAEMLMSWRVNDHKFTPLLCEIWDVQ
T1 sequence (P19793 1-462 partner): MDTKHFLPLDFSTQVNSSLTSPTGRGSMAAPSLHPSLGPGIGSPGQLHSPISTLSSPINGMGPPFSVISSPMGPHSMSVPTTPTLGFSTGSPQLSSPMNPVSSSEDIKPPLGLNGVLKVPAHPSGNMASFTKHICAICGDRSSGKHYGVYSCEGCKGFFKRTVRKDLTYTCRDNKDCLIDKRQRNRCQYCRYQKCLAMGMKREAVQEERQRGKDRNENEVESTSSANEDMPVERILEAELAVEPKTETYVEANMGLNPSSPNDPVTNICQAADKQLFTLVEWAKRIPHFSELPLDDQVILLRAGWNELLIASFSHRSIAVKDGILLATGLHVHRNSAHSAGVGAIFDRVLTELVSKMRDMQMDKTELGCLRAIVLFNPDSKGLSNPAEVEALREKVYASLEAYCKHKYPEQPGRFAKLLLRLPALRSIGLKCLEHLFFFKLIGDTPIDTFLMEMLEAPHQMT
Summary of the method: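 CV-1 monkey kidney cells transfected for an FXR/ECREx7 luciferase co-transfection reporter; luciferase read 18-20 h later in lysates. 8-point dose-response at ½-log spacing, 4 wells per point; EC50/IC50 from four-parameter Hill fit, averaged over at least 3 independent experiments.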

SMILES | solubility kinetic at 1.5 h (physchem) [µM] | EC50 [1] [nM] | Emax [1] [%]
CC(C)OC(=O)C1=CN(C(=O)c2cc(C(F)(F)F)ccc2C(F)(F)F)CC(C)(C)c2c1[nH]c1ccccc21 [Example 137, 1-methylethyl 3-{[2,5-bis(trifluoromethyl)phenyl]carbonyl}-1,1-dimethyl-1,2,3,6-tetrahydroazepino[4,5-b]indole-5-carboxylate] | 0.1 to 1 (≈ 0.0538 to 0.538 µg/mL) | 100 to 1000 | > 100
CC(C)OC(=O)C1=CN(C(=O)c2ccc(C(F)(F)F)c(F)c2F)CC(C)(C)c2c1[nH]c1ccccc21 [Example 138, 1-methylethyl 3-{[2,3-difluoro-4-(trifluoromethyl)phenyl]car-bonyl}-1,1-dimethyl-1,2,3,6-tetrahydroazepino[4,5-b]indole-5-carboxylate] | 0.1 to 1 (≈ 0.0506 to 0.506 µg/mL) | 10 to 100 | > 100
CC(C)OC(=O)C1=CN(C(=O)c2cccc(O)c2)CC(C)(C)c2c1[nH]c1ccccc21 [Example 139, 1-methylethyl 3-[(3-hydroxyphenyl)carbonyl]-1,1-dimethyl-1,2,3,6-tetrahydroazepino[4,5-b]indole-5-carboxylate] | 1 to 10 (≈ 0.418 to 4.18 µg/mL) | 10 to 100 | > 100
CC(C)OC(=O)C1=CN(C(=O)c2cccc(OCCN(C)C)c2)CC(C)(C)c2c1[nH]c1ccccc21 [Example 140, 1-methylethyl 3-[(3-{[2-(dimethylamino)ethyl]oxy}phenyl)carbonyl]-1,1-dimethyl-1,2,3,6-tetrahydroazepino[4,5-b]indole-5-carboxylate] | > 10 |  | > 100
CC(=O)N1CCN(Cc2cccc(C(=O)N3C=C(C(=O)OC(C)C)c4[nH]c5ccccc5c4C(C)(C)C3)c2)CC1 [Example 146, 1-methylethyl 3-({3-[(4-acetylpiperazin-1-yl)methyl]phenyl}carbonyl)-1,1-dimethyl-1,2,3,6-tetrahydroazepino[4,5-b]indole-5-carboxylate] | 1 to 10 (≈ 0.543 to 5.43 µg/mL) | 100 to 1000 | > 100
CC1(C)CN(C(=O)c2ccc(F)c(F)c2)C=C(C(=O)OC[C@@H](O)CO)c2[nH]c3ccccc3c21 [Example 171, (2S)-2,3-dihydroxypropyl-3-[(3,4-difluorophenyl)carbonyl]-1,1-dimethyl-1,2,3,6-tetrahydroazepino[4,5-b]indole-5-carboxylate] | > 10 | 10 to 100 | > 100
CC(=O)N1CCCN(Cc2cccc(C(=O)N3C=C(C(=O)OC(C)C)c4[nH]c5ccccc5c4C(C)(C)C3)c2)CC1 [Example 177, 1-methylethyl 3-({3-[(4-acetyl-1,4-diazepan-1-yl)methyl]phenyl}carbonyl)-1,1-dimethyl-1,2,3,6-tetrahydroazepino[4,5-b]indole-5-carboxylate] | 1 to 10 (≈ 0.557 to 5.57 µg/mL) | 100 to 1000 | > 100
CCNC(=O)N1CCN(Cc2cccc(C(=O)N3C=C(C(=O)OC(C)C)c4[nH]c5ccccc5c4C(C)(C)C3)c2)CC1 [Example 185, 1-methylethyl 3-{[3-({4-[(ethylamino)carbonyl]piper-azin-1-yl}methyl)phenyl]carbonyl}-1,1-dimethyl-1,2,3,6-tetrahydroazepino[4,5-b]indole-5-carboxylate] | 1 to 10 (≈ 0.572 to 5.72 µg/mL) | 100 to 1000 | > 100
CC(CO)OC(=O)C1=CN(C(=O)c2ccc(F)c(F)c2)CC(C)(C)c2c1[nH]c1ccccc21 (centres unmarked) [Example 193, 2-hydroxy-1-methylethyl 3-[(3,4-difluorophenyl)carbonyl]-1,1-dimethyl-1,2,3,6-tetrahydroazepino[4,5-b]indole-5-carboxylate] | 1 to 10 (≈ 0.454 to 4.54 µg/mL) | 10 to 100 | > 100
CC1(C)CN(C(=O)c2ccc(F)c(F)c2)C=C(C(=O)OCCO)c2[nH]c3ccccc3c21 [Example 196, 2-hydroxyethyl 3-[(3,4-difluorophenyl)carbonyl]-1,1-dimethyl-1,2,3,6-tetrahydroazepino[4,5-b]indole-5-carboxylate] | 1 to 10 (≈ 0.44 to 4.4 µg/mL) | 10 to 100 | > 100
